Columns and labels:
lens protein disulfides = assay: In vitro mouse lens protein disulfide analysis; conditions: eight month old mouse lenses, 12 hours incubation
Protocol: (§1) In vitro test: Eight month old mouse lenses (C57BL/6J) were incubated for 12 hours in medium supplemented with selected levels (0-500 μM) of lipoic acid (LA). Lens elasticity was measured using the coverslip method known. After elasticity measurements, lenses were homogenized in a dissociation medium containing alkylating agent 1 (free SH modification). The homogenate was filtered and the rinsed, resuspended, retentate was treated with reducing agent (TCEP) and alkylating agent 2 (S-S SHs modified). After filtration and rinses, the levels of alkylated SH groups in retentate 2 was determined. Bovine serum albumin was the positive control for the sulfhydryl analysis.

mouse lenses (C57BL/6J) = assay: In vitro mouse lens elasticity (coverslip method); conditions: eight month old mouse lenses, 12 hours incubation
Protocol: as §1

[1] = Stability of LACE chloride in propylene glycol (HPLC potency); type: physicochemical; conditions: 1.0% in propylene glycol
Protocol: The HPLC method to analyze LACE Chloride used a Phenomenex Luna CN column with a 5 um particle size, 100 A pore size, 2.0 mm inner diameter, and 50 mm length (PN: 00B-4255-B0). The mobile phase consisted of 50% of 0.1 M Sodium Acetate and 50% Acetonitrile. The flow rate was 1.0 mL/min, the detection wavelength was 225 nm, the column temperature was 40° C., the injection volume was 20 uL, and the run time was 50 minutes. The working LACE chloride concentration was 0.1 mg/mL and plastic HPLC vials were used for the analysis.
A solution of LACE chloride in propylene glycol was prepared to determine its stability. A solution of 1.0% LACE chloride in propylene glycol was prepared and stored at −20° C. (ambient RH), 5° C. (ambient RH), and 25° C. (40% RH). The solutions were tested for LACE chloride potency after storage for 3 months.
In these samples, HPLC analysis (using the method described in Example 2) a peak with relative retention time (RRT) of approximately 0.73. […] No additional peaks are detected. The peak at 0.73 RRT is not detected in the LACE chloride solutions in citrate buffer.

[2] = Toxicokinetics (plasma levels) in GLP rabbit study; type: in vivo; conditions: rabbits; topical DIOPTIN three times daily
Protocol: Screening studies were conducted to determine the highest tolerated concentration when applied topically to rabbit eyes, in conjunction with bioanalysis of corneal, aqueous humor, and lens concentrations of EV06 and its metabolites. In a GLP rabbit study, animals were treated with topical 0, 1, 3 or 4% DIOPTIN™ (lipoic acid choline ester) solution three times daily for 90 consecutive days. Slit-lamp exams and fundoscopy were performed at pre-dose baseline and after 1, 30, and 90 days of dosing. Daily clinical observations, food consumption, body weights, clinical pathology, and toxicokinetics were performed. Full necropsy and ocular histopathology were also conducted.

[3] = Stability of LACE in neat glycerol; type: physicochemical; conditions: mixed in neat glycerol, 80° C. for 8 hours
Protocol: Lipoic acid choline ester was mixed in neat glycerol (no water) with brief heating to 80° C. for 8 hours. High concentrations of lipoic acid choline ester in a final clear solution were found. The final clear solution is stable.

[4] = system: New Zealand white rabbits; assay: Draize test for eye drop ocular safety; type: in vivo, rabbit; conditions: EV06 3%-5%
Protocol: Safety of the EV06 was evaluated by the Draize test to evaluate its use at concentrations as high as 5%. The Draize Test is an acute toxicity test devised in 1944 by Food and Drug Administration (FDA) toxicologists John H. Draize and Jacob M. Spines. Initially used for testing cosmetics, the procedure involves applying 0.5 mL or 0.5 g of a test substance to the eye or skin of a restrained, conscious animal, and then leaving it for set amount of time before rinsing it out and recording its effects. Corneal, iris, and conjunctival responses were evaluated using the scale described by Draize et al., J. Pharmacol. & Exp. Therapeutics, 82:377-390 (1944)]. Because of the importance of the cornea to vision, 73% of the Draize score is based on corneal damage. A normal score was 0, increasing amounts of damage result in a higher score, with the maximum score possible being 110. A Draize score was computed at each observation time by averaging the total scores of all rabbits tested. Observations were made and recorded 24, 48, and 72 hours after treatment.
This test consists of instilling 30 to 50 μL of the product into one eye of 6 New Zealand white rabbits and monitoring to observe any abnormal clinical signs such as redness of conjunctiva, swelling, or increased blinking which may indicate irritation.

[5] = Corneal penetration and ocular pharmacokinetics in rabbits (HPLC-ESI/MS/MS); type: in vivo, rabbit
Protocol: Esters of lipoic acid were evaluated in rabbits for corneal penetration. Rabbits were also used to examine the metabolism, absorption, and distribution of LACE (LA prodrug) using HPLC-ESI/MS/MS (LOD>2 ng/ml).

O=C(O)CCCCC1CCSS1 (centres unmarked) [LA, lipoic acid]
concentration of maximal effect on lens protein disulfides (lens protein disulfides): 100 µM | EC50 (lens protein disulfides; 0-500 μM LA, read-out: [LA]50 for decrease in lens protein disulfides): 50 ± 10 µM | concentration of maximal effect on lens elasticity (mouse lenses (C57BL/6J)): 100 µM | EC50 (mouse lenses (C57BL/6J); 0-500 μM LA, read-out: [LA]50 for increase in lens elasticity): 50 ± 10 µM

C[N+](C)(C)CCOC(=O)CCCC[C@@H]1CCSS1.[Cl-] [LACE chloride, lipoic acid choline ester chloride]
stability of LACE chloride in propylene glycol ([1]; 3 months storage at 5° C. and 25° C.): not stable | conversion to peak at RRT approximately 0.73 ([1]; stored at room temperature, 3 months): completely converted

C[N+](C)(C)CCOC(=O)CCCC[C@@H]1CCSS1 [LACE, lipoic acid choline ester]
Plasma levels of EV06 [2]: at or below the limits of detection | stability of clear solution in neat glycerol [3]: stable | Draize Rabbit Eye test score ([4]; 30 to 50 μL into one eye, scale 0 to 110): 2.0+/−0.6 | Draize test classification ([4]; New Zealand white rabbits): not corrosive or irritating | corneal penetration compared with lipoic acid [5]: improve penetration over lipoic acid

— patent US11426381B2, “Lipoic acid choline ester compositions and methods of use” (NOVARTIS AG, priority 2014, dated 2022)
